The record followed here is patent US10683506B2, “CD117 ligand-drug conjugates for targeted cancer therapy” (THE METHODIST HOSPITAL SYSTEM, priority 2015, dated 2020).

Format in all cases: cell-based
The test system of one test is HEL cells. The experiment in a line: Apoptosis assay, Annexin V staining, flow cytometry. Conditions: 10 nM MTX payload or equal molar. The protocol: (§1) Treated cells also were investigated by apoptosis assay. Annexin V-APC staining (BD Biosciences, San Jose, Calif.) was performed according to the manufacturer's instructions. The cell samples were analyzed using a FACS caliber (BD Biociences, San Jose, Calif., USA) flow cytometry equipped with cellquest software.

Test [1] relates to CD117-negative control cells (U937). The test is described as above. Conditions: 10 nM MTX payload or equal molar. On the procedure: as §1
The test system of a further test is AML cells (HEL). The experiment in a line: Cell growth inhibition by MTT assay. The protocol: (§2) Cell growth inhibition was monitored by MTT (MTT (3-[4,5-dimethylthiazol-2-yl]-2,5-diphenyltetrazolium bromide) assay post treatment. Cells (5000) were treated by CD117 Apt-MTX or equal molar free MTX in RPMI 1640 medium for 2 h. After replacement with fresh medium containing 10% serum, cells were cultured for an additional 48 hours and then 10 μl of MTT solution (5 mg/mL in PBS) were added to each well. After a further 4 h of incubation, the culture medium was removed and the formazan crystals in the cells were solubilized with 100 μl of DMSO for 15 minutes. The UV absorbance at 570 nm was measured with a microplate reader.

Test [2] has as its system CD117-negative control cells (U937). The experiment in a line: Cell growth inhibition by MTT assay. On the procedure:
as §2

The structures appear in SMILES notation.

In the case of `CN(Cc1cnc2nc(N)nc(N)c2n1)c1ccc(C(=O)N[C@@H](CCC(=O)O)C(=O)O)cc1` [free MTX, Methotrexate], the cell apoptosis result with HEL cells is “minimal effect on both HEL and control cells”. In addition, the “cell apoptosis / toxicity” value in test [1] is “minimal effect on both HEL and control cells”. Also, the inhibition result in the test with AML cells (HEL) (100 nM final concentration) was “about 30%”; in test [2] (U937, 100 nM final concentration) it was “about 30%”. For the same compound, the “effect on cell proliferation (in words)” value in the test with AML cells (HEL) (equal molar (10 nM MTX), treated 2 hours, cultured 48 hr) is listed as “minimal effect on both cells”; in test [2] (U937, 10 nM MTX, treated 2 hours, cultured 48 hr), “minimal effect on both cells”.
